Data: ChEMBL document CHEMBL1156790, “Synthesis and structure-activity relationships of antitubercular 2-nitroimidazooxazines bearing heterocyclic side chains” (J Med Chem, 2010)
Values after ≈ are worked out from the molar mass of the structure shown.

Columns and labels:
[1] = test system: Mycobacterium tuberculosis; assay: Antimycobacterial activity against Mycobacterium tuberculosis H37Rv after 16 to 24 hrs by microplate alamar blue assay; assay type: functional
[2] = test system: Mycobacterium tuberculosis; assay: Antimycobacterial activity against Mycobacterium tuberculosis H37Rv expressing pFCA-luxAB after 10 days by luminescence-based low-oxygen recovery assay; assay type: functional; details: 240 h
Vero = assay: Cytotoxicity against african green monkey Vero cells after 72 hrs by tetrazolium dye assay; assay type: cell-based; details: Chlorocebus sabaeus
[3] = Solubility in water at pH 7 at 20 degC; assay type: physicochemical

SMILES	MIC [1] [µM]	MIC [2] [µM]	IC50 (Vero) [µM]	solubility [3] [µg/mL]
O=[N+]([O-])c1cn2c(n1)OC[C@@H](OCc1nnc(-c3ccc(F)cc3)o1)C2	2.4 (≈ 0.867 µg/mL)	17 (≈ 6.14 µg/mL)	> 128	108 (≈ 299 µM)
O=[N+]([O-])c1cn2c(n1)OC[C@@H](OCc1cnn(-c3ccc(OC(F)(F)F)cc3)n1)C2	0.03 (≈ 0.0128 µg/mL)	1.6 (≈ 0.682 µg/mL)	> 128	–
O=[N+]([O-])c1cn2c(n1)OC[C@@H](OCc1cnn(-c3ccc(C(F)(F)F)cc3)c1)C2	0.54 (≈ 0.221 µg/mL)	2.3 (≈ 0.941 µg/mL)	> 128	4.9 (≈ 12 µM)
N#Cc1ccc(-n2cc(CO[C@@H]3COc4nc([N+](=O)[O-])cn4C3)nn2)cc1	0.89 (≈ 0.327 µg/mL)	11 (≈ 4.04 µg/mL)	> 128	–
O=[N+]([O-])c1cn2c(n1)OC[C@@H](OCc1cn(-c3ccc(F)cc3)nn1)C2	1.2 (≈ 0.432 µg/mL)	6.9 (≈ 2.49 µg/mL)	> 128	–
COc1ccc(-c2cc(CO[C@@H]3COc4nc([N+](=O)[O-])cn4C3)on2)cc1F	1.1 (≈ 0.429 µg/mL)	2 (≈ 0.781 µg/mL)	> 128	–
O=[N+]([O-])c1cn2c(n1)OC[C@@H](OCc1ccc(-c3ccc(F)cc3)s1)C2	0.05 (≈ 0.0188 µg/mL)	1.9 (≈ 0.713 µg/mL)	> 128	–
O=[N+]([O-])c1cn2c(n1)OC[C@@H](OCc1cnn(-c3ccc(F)cc3)n1)C2	0.17 (≈ 0.0613 µg/mL)	1.4 (≈ 0.504 µg/mL)	> 128	–
O=[N+]([O-])c1cn2c(n1)OC[C@@H](OCc1ccc(-c3cc(C(F)(F)F)ccn3)s1)C2	0.28 (≈ 0.119 µg/mL)	1.7 (≈ 0.725 µg/mL)	> 128	–
COc1ccc(-c2cc(CO[C@@H]3COc4nc([N+](=O)[O-])cn4C3)on2)cn1	2 (≈ 0.747 µg/mL)	4.1 (≈ 1.53 µg/mL)	> 128	–
O=[N+]([O-])c1cn2c(n1)OC[C@@H](OCc1csc(-c3ccc(OC(F)(F)F)cc3)n1)C2	1.2 (≈ 0.531 µg/mL)	1.5 (≈ 0.664 µg/mL)	> 128	–
Cn1c(CO[C@@H]2COc3nc([N+](=O)[O-])cn3C2)cnc1-c1ccc(C(F)(F)F)cc1	0.65 (≈ 0.275 µg/mL)	9.7 (≈ 4.11 µg/mL)	> 128	16 (≈ 37.8 µM)
O=[N+]([O-])c1cn2c(n1)OC[C@@H](OCc1ccc(-c3ccc(F)nc3)s1)C2	0.86 (≈ 0.324 µg/mL)	2.3 (≈ 0.866 µg/mL)	> 128	–
O=[N+]([O-])c1cn2c(n1)OC[C@@H](OCc1csc(-c3ccc(F)cc3)n1)C2	0.35 (≈ 0.132 µg/mL)	2.8 (≈ 1.05 µg/mL)	> 128	–
O=[N+]([O-])c1cn2c(n1)OC[C@@H](OCc1ccn(-c3ccc(F)cc3)n1)C2	0.11 (≈ 0.0395 µg/mL)	7.2 (≈ 2.59 µg/mL)	> 128	–
COc1ccc(-c2ccc(CO[C@@H]3COc4nc([N+](=O)[O-])cn4C3)s2)cc1F	0.06 (≈ 0.0243 µg/mL)	1 (≈ 0.405 µg/mL)	> 128	–
O=[N+]([O-])c1cn2c(n1)OC[C@@H](OCc1cc(-c3ccc(OC(F)(F)F)cc3)no1)C2	0.55 (≈ 0.234 µg/mL)	1.2 (≈ 0.512 µg/mL)	> 128	–
O=[N+]([O-])c1cn2c(n1)OC[C@@H](OCc1cn(-c3ccc(C(F)(F)F)cc3)nn1)C2	0.11 (≈ 0.0451 µg/mL)	3.4 (≈ 1.4 µg/mL)	> 128	4.6 (≈ 11.2 µM)
O=[N+]([O-])c1cn2c(n1)OC[C@@H](OCc1cc(-c3ccc(C(F)(F)F)cc3)no1)C2	0.17 (≈ 0.0698 µg/mL)	2.6 (≈ 1.07 µg/mL)	> 128	0.5 (≈ 1.22 µM)
N#Cc1ccc(-c2cc(CO[C@@H]3COc4nc([N+](=O)[O-])cn4C3)on2)cc1	1.4 (≈ 0.514 µg/mL)	6.2 (≈ 2.28 µg/mL)	> 128	–
COc1ccc(-n2cc(CO[C@@H]3COc4nc([N+](=O)[O-])cn4C3)nn2)cn1	1.6 (≈ 0.597 µg/mL)	12 (≈ 4.48 µg/mL)	> 128	–
O=[N+]([O-])c1cn2c(n1)OC[C@@H](OCc1cnn(-c3ccccc3)n1)C2	0.25 (≈ 0.0856 µg/mL)	2.2 (≈ 0.753 µg/mL)	> 128	–
Cn1nc(-c2ccc(C(F)(F)F)cc2)cc1CO[C@@H]1COc2nc([N+](=O)[O-])cn2C1	0.06 (≈ 0.0254 µg/mL)	4.1 (≈ 1.74 µg/mL)	> 128	–
Cn1nc(-c2ccc(F)cc2)cc1CO[C@@H]1COc2nc([N+](=O)[O-])cn2C1	0.36 (≈ 0.134 µg/mL)	4 (≈ 1.49 µg/mL)	> 128	–

SMILES	MIC [1] [µM]	MIC [2] [µM]	IC50 (Vero) [µM]	solubility [3] [µg/mL]
O=[N+]([O-])c1cn2c(n1)OC[C@@H](OCc1ccc(-c3cncc(F)c3)s1)C2	0.87 (≈ 0.327 µg/mL)	2.3 (≈ 0.866 µg/mL)	> 128	–
Cn1c(CO[C@@H]2COc3nc([N+](=O)[O-])cn3C2)cnc1-c1ccc(C#N)cc1	2.8 (≈ 1.07 µg/mL)	> 32	> 128	–
O=[N+]([O-])c1cn2c(n1)OC[C@@H](OCc1cnn(-c3ccc(F)cc3)c1)C2	0.8 (≈ 0.287 µg/mL)	3.9 (≈ 1.4 µg/mL)	> 128	–
O=[N+]([O-])c1cn2c(n1)OC[C@@H](OCc1ccc(-c3ccc(OC(F)F)cc3)s1)C2	0.86 (≈ 0.364 µg/mL)	0.58 (≈ 0.246 µg/mL)	> 128	–
O=[N+]([O-])c1cn2c(n1)OC[C@@H](OCc1ccc(-c3ccc(C(F)(F)F)cc3)s1)C2	0.16 (≈ 0.0681 µg/mL)	1 (≈ 0.425 µg/mL)	> 128	0.7 (≈ 1.65 µM)
O=[N+]([O-])c1cn2c(n1)OC[C@@H](OCc1ccn(-c3ccc(C(F)(F)F)cc3)n1)C2	0.045 (≈ 0.0184 µg/mL)	1 (≈ 0.409 µg/mL)	> 128	5.4 (≈ 13.2 µM)
O=[N+]([O-])c1cn2c(n1)OC[C@@H](OCc1nnn(-c3ccc(F)cc3)n1)C2	0.29 (≈ 0.105 µg/mL)	3.4 (≈ 1.23 µg/mL)	> 128	–
N#Cc1ccc(-c2cccc(CO[C@@H]3COc4nc([N+](=O)[O-])cn4C3)c2)cc1	–	4.8 (≈ 1.81 µg/mL)	> 128	–
COc1ccc(-c2nc(CO[C@@H]3COc4nc([N+](=O)[O-])cn4C3)cs2)cc1F	0.2 (≈ 0.0813 µg/mL)	1.7 (≈ 0.691 µg/mL)	> 128	–
COc1ccc(-c2ncc(CO[C@@H]3COc4nc([N+](=O)[O-])cn4C3)n2C)cc1F	1.4 (≈ 0.565 µg/mL)	> 32	> 128	–
O=[N+]([O-])c1cn2c(n1)OC[C@@H](OCc1cccc(-c3ccc(F)cc3)c1)C2	–	3.8 (≈ 1.4 µg/mL)	> 128	1.8 (≈ 4.87 µM)
O=[N+]([O-])c1cn2c(n1)OC[C@@H](OCc1nnn(-c3ccccc3)n1)C2	1.2 (≈ 0.412 µg/mL)	5.7 (≈ 1.96 µg/mL)	> 128	–
O=[N+]([O-])c1cn2c(n1)OC[C@@H](OCc1cccc(-c3ccc(OC(F)(F)F)cc3)c1)C2	–	2.2 (≈ 0.958 µg/mL)	> 128	–
N#Cc1ccc(-c2nc(CO[C@@H]3COc4nc([N+](=O)[O-])cn4C3)cs2)cc1	0.67 (≈ 0.257 µg/mL)	3.2 (≈ 1.23 µg/mL)	> 128	–
COc1ccc(-c2cccc(CO[C@@H]3COc4nc([N+](=O)[O-])cn4C3)c2)cc1F	–	2.2 (≈ 0.879 µg/mL)	> 128	–
O=[N+]([O-])c1cn2c(n1)OC[C@@H](OCc1ccc(-c3ccc(OC(F)(F)F)cc3)s1)C2	0.85 (≈ 0.375 µg/mL)	2.6 (≈ 1.15 µg/mL)	> 128	–
COc1ccc(-c2ccc(CO[C@@H]3COc4nc([N+](=O)[O-])cn4C3)s2)cn1	0.22 (≈ 0.0854 µg/mL)	4.5 (≈ 1.75 µg/mL)	> 128	2.2 (≈ 5.66 µM)
COc1ccc(-c2nc(CO[C@@H]3COc4nc([N+](=O)[O-])cn4C3)cs2)cn1	1.4 (≈ 0.545 µg/mL)	4.5 (≈ 1.75 µg/mL)	> 128	–
O=[N+]([O-])c1cn2c(n1)OC[C@@H](OCc1csc(-c3ccc(C(F)(F)F)cc3)n1)C2	1.4 (≈ 0.597 µg/mL)	3 (≈ 1.28 µg/mL)	> 128	2.8 (≈ 6.57 µM)
COc1ccc(-n2cc(CO[C@@H]3COc4nc([N+](=O)[O-])cn4C3)nn2)cc1F	0.86 (≈ 0.336 µg/mL)	8.7 (≈ 3.4 µg/mL)	> 128	–
O=[N+]([O-])c1cn2c(n1)OC[C@@H](OCc1cc(-c3ccc(F)cc3)no1)C2	1.5 (≈ 0.54 µg/mL)	1.9 (≈ 0.685 µg/mL)	> 128	–
Cn1c(CO[C@@H]2COc3nc([N+](=O)[O-])cn3C2)cnc1-c1ccc(F)cc1	1.9 (≈ 0.709 µg/mL)	31 (≈ 11.6 µg/mL)	> 128	–
Cn1c(CO[C@@H]2COc3nc([N+](=O)[O-])cn3C2)cnc1-c1ccc(OC(F)(F)F)cc1	1.1 (≈ 0.483 µg/mL)	7.4 (≈ 3.25 µg/mL)	> 128	–
O=[N+]([O-])c1cn2c(n1)OC[C@@H](OCc1cccc(-c3ccc(C(F)(F)F)cc3)c1)C2	–	2.9 (≈ 1.22 µg/mL)	> 128	2.8 (≈ 6.68 µM)
